In patent US20240109843A1, “BENZALDEHYDE COMPOUNDS WITH DIRECT POLYMER DESTABILIZING EFFECTS TO TREAT SICKLE CELL DISEASE” (VIRGINIA COMMONWEALTH UNIVERSITY, priority 2018, published 2024):
Where “and” joins values, the source holds several entries; their conditions need not be identical. Equal values may be shown once.

Assays:
[1] = Single-dose oral pharmacokinetics in rats; assay type: in vivo, Sprague Dawley rats; conditions: Sprague Dawley, rat; single oral dose 100 mg/kg, male rats, whole blood
Protocol: Single doses of each compound were administered as oral suspensions by gavage in 0.5% carboxy methylcellulose at 100 mg/kg. Whole blood levels were collected for at least 72 hours after dose administration. Bioanalyses were performed with liquid chromatography-tandem mass spectrometry […].
Single-dose pharmacokinetics (PK) in male Sprague Dawley (SD) rats (n=4) were assessed for each compound, and the maximum or peak whole blood concentration and area under the curve are shown in Table 5.

Hb [2] = biological target: T1, Hb (Homo sapiens, UniProt P69905); test: Drug partitioning studies, fixed and unfixed Hb adducts in non-sickling AA blood; assay type: cell-based; parameters: Hemoglobin modification, studies using non-sickling AA blood; from tissue; host or cells: non-sickling (AA) human blood, red blood cells; conditions: 2 mM; for Fixed Adducts (%) / Unfixed Adduct (%): 6 biological replicates; for Partitioning Ratio (%): fixed relative to unfixed adducts
Protocol: RBC partitioning studies were conducted both for SS RBCs following sickling studies above, or as separate independent studies with non-sickle blood. Briefly, aliquots of blood samples, which had been incubated with test molecules, were lysed either in deionized water (un-fixed), or in water containing 50 mM sodium borohydride (fixed). Samples were subjected to cation exchange HPLC analyses, as described above. Modified […] (Hb adducts) was determined as a proportion of total Hb in each sample, and partitioning ratio was determined as the relative fraction of Hb modification of fixed samples compared to corresponding non-fixed samples. The partitioning ratio is the relative fraction of Hb that was modified intracellularly by molecules that permeated the RBC membrane, as compared to unfixed adducts which reflect Hb binding without RBC membrane permeation.
Target sequence in this assay (P69905 2-142 limits assumed): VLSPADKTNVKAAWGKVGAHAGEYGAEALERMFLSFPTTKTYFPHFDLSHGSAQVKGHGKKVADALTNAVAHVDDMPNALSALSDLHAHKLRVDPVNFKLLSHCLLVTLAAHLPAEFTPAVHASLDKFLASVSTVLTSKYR
Target sequence in this assay (P68871 2-147 partner limits assumed): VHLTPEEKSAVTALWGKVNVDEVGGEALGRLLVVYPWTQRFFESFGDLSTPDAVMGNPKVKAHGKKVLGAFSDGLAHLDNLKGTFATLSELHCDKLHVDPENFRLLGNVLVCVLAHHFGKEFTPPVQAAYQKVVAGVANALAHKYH

Hb [3] = biological target: T1, Hb; test: Hb modification (drug-adduct formation) in SS blood suspensions by cation-exchange HPLC; assay type: binding; parameters: Blood suspensions from subjects with homozygous SCD; from tissue; host or cells: blood suspensions (20% hematocrit) from donors with homozygous SCD; lysates of the treated red cells; conditions: 2 mM, 4 biological replicates
Protocol: All compounds (Comp 1-13) and comparator molecules (VZHE-039, PP-14, INN-310, and Voxelotor) were evaluated following established procedures. Blood samples from individual donors with homozygous SCD (obtained with informed consent) were diluted using Hemox buffer solution with the addition of glucose (10 mM) and BSA (0.2%) to adjust hematocrit of the blood suspensions to 20%, which standardizes the procedure to normalize the ratio of RBCs to drug, for assay consistency and reproducibility. Briefly, blood suspensions were incubated under room air in the presence of various concentrations of test compounds (0-2 mM) at 37° C. for 1 hour in 96-well round bottom plates. Subsequently, the suspensions were incubated with a hypoxic gas mixture (2.5% Oxygen gas/balance Nitrogen gas) at 37° C. for up to 2 hours prior to fixation with 2% glutaraldehyde solution without exposure to air. The fixated blood aliquots were evaluated by microscopic morphological analysis (image analysis on Image J software) to identify the proportion of sickled and non-sickled RBCs, and sickle inhibition calculated based on the % change from negative control (DMSO).
The residual samples were then washed in phosphate-buffered saline, and hemolyzed in hypotonic lysis buffer, with or without sodium borohydride (50 mM). Aliquots obtained from the lysates with or without sodium borohydride (to reduce Schiff base adducts) were also assessed for level of Hb modification (drug-adduct formation) by cation-exchange HPLC (Hitachi D-7000 Series, Hitachi Instruments, Inc., San Jose, CA) with a weak cation-exchange column (Poly CAT A: 50 mm×4.6 mm, Poly LC, Inc., Columbia, MD). Hemoglobin isotype peaks are eluted with a linear gradient of phase B from 0% to 80% at A410 nm (Mobile Phase A: 40 mM Bis-Tris, 2 mM KCN, pH 6.9; Phase B: 40 mM Bis-Tris, 2 mM KCN, 0.2 M sodium chloride, pH 6.55). Clarified lysate from normal human adult […] (Hb A), as well as commercial standards containing approximately equal amounts of Hb F, A, S and C (Helena Laboratories, Beaumont, TX), were utilized as reference isotypes. Reduced samples were used to assess “fixed adduct” formation (dependent on RBC membrane permeability), whereas non-reduced samples assessed drug-adduct formation independent of drug permeability.
Target sequence in this assay (P69905 2-142): as the sequence (P69905 2-142 limits assumed) above
Target sequence in this assay (P68871 with tags, fused parts or gaps E7V partner): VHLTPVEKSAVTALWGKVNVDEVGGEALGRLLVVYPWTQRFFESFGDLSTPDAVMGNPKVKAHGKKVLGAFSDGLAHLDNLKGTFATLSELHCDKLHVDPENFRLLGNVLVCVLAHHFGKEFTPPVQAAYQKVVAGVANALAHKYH

[4] = test system: RBCs from donors with homozygous SCD; test: Oxygen-independent sickle inhibition in SS blood suspensions under anoxia (100% nitrogen); assay type: cell-based, human; conditions: anoxia
Protocol: To establish oxygen-independent sickle inhibition, the incubation chamber was subsequently opened and exposed to room air for 15 minutes to ensure complete re-oxygenation and reversal of the sickled cells to normal round cells. Reversal was confirmed by microscopy. The incubation chamber was then closed, and the assay was repeated with incubation in 100% nitrogen gas for 1 hour (for screening), or up to 2.5 h (for time-course studies), with collection and fixation of blood aliquots at defined intervals. Aliquot samples were again subjected to microscopic morphological analysis of bright field images to identify the proportion of sickled and non-sickled cells, and sickle inhibition calculated.

Hb [5] = biological target: T1, Hb; test: Oxygen equilibrium curve (OEC) studies with normal whole blood; assay type: cell-based; parameters: Hemoglobin modification, studies using non-sickling AA blood; from tissue; host or cells: non-sickling (AA) human blood, red blood cells; conditions: normal whole blood, 0.5, 1, 2 mM
Protocol: Oxygen equilibrium curve (OEC) studies to determine the effect of the compounds on Hb affinity for oxygen were conducted following standard procedure. Whole blood (30% hematocrit) was incubated in the absence or presence of compounds (0.5 mM, 1.0 mM and 2.0 mM) solubilized in DMSO. […] After equilibration, the sample was removed via syringe and aspirated into an ABL 700 series table top automated blood gas analyzer (Radiometer America, Inc., Westlake, OH) to determine total hemoglobin (tHb), hematocrit (Hct), pH, pCO2, partial pressure of oxygen (pO2), and the Hb-O2 saturation (sO2) values. The measured values of pO2 and sO2 at each oxygen saturation level were then subjected to nonlinear regression analysis using the software Scientist (Micromath, Salt Lake City UT) with the following equation: […]
Aromatic aldehydes are known to prevent hypoxia-induced Hb S polymerization by increasing the Hb affinity for oxygen. We therefore tested the PP compounds in a dose-dependent manner (0.5, 1, 2 mM) for their effect on Hb oxygen binding property. […] These findings confirmed that the potent in vitro activity previously seen in TD7 was at least conserved in the novel PP compounds.
Target sequence in this assay (P69905 2-142 limits assumed): as the sequence (P69905 2-142 limits assumed) above
Target sequence in this assay (P68871 2-147 partner limits assumed): as the sequence (P68871 2-147 partner limits assumed) above

sickle red blood cells = test: Antisickling study with human sickle blood under 2.5% oxygen; assay type: cell-based; conditions: 0.5, 1 and 2 mM, sickle RBCs
Protocol: Blood suspensions from subjects with homozygous SCD (resuspended in Hemox™ buffer to a final hematocrit 20%) were incubated under air in the absence or presence of the compounds (0.5 mM, 1 mM and 2 mM) at 37° C. for 1 h to ensure that binding had attained equilibrium. The suspensions were then incubated under hypoxic conditions (2.5% oxygen/97.5% nitrogen) at 37° C. for 1 h. Aliquot samples were fixed with 2% glutaraldehyde solution without exposure to air, and then subjected to microscopic morphological analysis of bright field images (at 40× magnification) of single layer cells on an Olympus BX40 microscope fitted with an Infinity Lite B camera (Olympus), and the coupled Image Capture software. The residual samples were washed in phosphate-buffer saline, and hemolyzed in hypotonic lysis buffer for subsequent Hb-modification and oxygen equilibrium analyses.
The studies described above were conducted using normal whole blood. Next, we investigated whether the improvement in Hb oxygen affinity and the compounds sustained activity also translated to similar effects in SS blood from SCD patients. […] At 1 mM, PP8 and PP9 inhibited nearly 100% of sickling, while PP2, PP6, PP14 inhibited sickling by more than 70%. […] It is clear that the modifications of the present compounds has led to significant improvement in antisickling activity.

intracellular Hb = biological target: T2, intracellular Hb (Mus musculus, UniProt P01942); test: In vivo modification of intracellular Hb in wild-type mice; parameters: species or system C57BL/6 mice; conditions: IP 150 mg/kg, 30% PEG300, 6 h
T2 construct: from tissue; host or cells: blood (red cell lysates) of dosed C57BL/6 mice
T2 sequence (P01942 2-142 limits assumed): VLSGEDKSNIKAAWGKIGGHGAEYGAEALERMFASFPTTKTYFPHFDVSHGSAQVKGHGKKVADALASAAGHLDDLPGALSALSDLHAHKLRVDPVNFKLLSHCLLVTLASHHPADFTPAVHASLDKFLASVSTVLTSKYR
T2 sequence (P02088 2-147 partner limits assumed): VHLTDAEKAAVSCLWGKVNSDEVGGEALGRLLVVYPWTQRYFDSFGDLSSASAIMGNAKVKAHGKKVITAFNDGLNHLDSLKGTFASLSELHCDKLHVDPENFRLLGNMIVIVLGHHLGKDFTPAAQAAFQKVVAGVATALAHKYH
Protocol: We tested in vivo pharmacologic (pharmacodynamics) effects of select PP compounds in C57BL/6 mice. The animals were treated with a single intraperitoneal (IP) (150 mg/kg body weight) dose of PP6, PP10, PP14, and TD7, which were formulated with 30% PEG300. Blood samples were obtained prior to treatment (0) and 1, 3 and 6 h post-treatment, via submandibular bleeding, and subjected to hemolysis using standard methods. Clarified lysates, free of cell debris and red blood cell ghosts were analyzed by cation-exchange HPLC to determine the levels of drug-modified hemoglobin (adducts); and to conduct oxygen equilibrium studies to determine degrees of shift in p50 values using methodologies described earlier for in vitro studies on human samples. In a subsequent follow-up experiment, a new excipient obtained from Catalent Pharma Solutions was also used to formulate PP14 and used for a single intraperitoneal (IP) and oral (150 mg/kg body weight) dose. Blood samples were obtained prior to treatment (0) and 1, 3 or 5 h post-treatment, via submandibular bleeding, and used to determine the levels of drug-modified hemoglobin (adducts); and to conduct oxygen equilibrium studies to determine degrees of shift in p50 values as described above.

SMILES	Fixed Adducts (%) (Hb [2])	Unfixed Adduct (%) (Hb [2])	Partitioning Ratio (%) (Hb [2])	Hb Modification (%) (Hb [3])	effect on Hb oxygen binding property (OEC) (Hb [5])	also measured
O=Cc1c(F)cc(F)cc1OCc1ncccc1F [Comp 13, 2,4-difluoro-6-((3-fluoropyridin-2-yl)methoxy)benzaldehyde]	80.7 ± 4.8	78.4 ± 6.1	103.0 ± 2.9	79.1 ± 10.3		polymer destabilizing effect / sickle inhibition in anoxia (in words) [4]: completely negates the polymer destabilization effects
COC(=O)c1ccnc(COc2cccc(O)c2C=O)c1 [PP7, Methyl 2-((2-formyl-3-hydroxyphenoxy)methyl)isonicotinate]					most significant activities	
COC(=O)c1ccnc(COc2ccc(OC)cc2C=O)c1 [PP4]					minimal effect	
O=Cc1c(O)cccc1OCc1cncc(F)c1 [Comp 4, 2-((5-fluoropyridin-3-yl)methoxy)-6-hydroxybenzaldehyde]	85.9 ± 7.1	88.8 ± 6.2	96.9 ± 5.73	92.9 ± 9.8		AUC(0-inf) [1]: 831000 ng·h/mL and 3360 µM·h; Cmax [1]: 59800 ng/mL and 242 µM; half-life [1]: 354 min
O=Cc1c(O)cccc1OCc1cncnc1 [Comp 10, 2-hydroxy-6-(pyrimidin-5-ylmethoxy)benzaldehyde]	94.8 ± 2.8	96.3 ± 3.0	98.5 ± 2.7	100.0 ± 0.0		AUC(0-inf) [1]: 693000 ng·h/mL and 3010 µM·h; Cmax [1]: 36200 ng/mL and 157 µM; half-life [1]: 282 min
COC(=O)c1ccc(COc2ccc(OC)cc2C=O)nc1 [PP1, Methyl 6-((2-formyl-4-methoxyphenoxy)methyl)nicotinate]					minimal effect	
COC(=O)c1cncc(COc2ccc(OC)cc2C=O)c1 [PP12, Methyl 5-((2-formyl-4-methoxyphenoxy)methyl)nicotinate]					most significant activities	
COc1cc(C=O)ccc1O [vanillin, reference compound]					very weak functional effect	sickling inhibition (in words) (sickle red blood cells): minimal sickling inhibition
COC(=O)c1cccc(COc2cccc(O)c2C=O)n1 [PP10, Methyl 6-((2-formyl-3-hydroxyphenoxy)methyl)picolinate]						modified Hb (intracellular Hb): 9.6±1.9%

Continued, in another order:

Fixed Adducts (%) (Hb [2])	Unfixed Adduct (%) (Hb [2])	Partitioning Ratio (%) (Hb [2])	Hb Modification (%) (Hb [3])	effect on Hb oxygen binding property (OEC) (Hb [5])	SMILES	also measured
67.3 ± 12.1	67.1 ± 10.3	100.0 ± 2.8	73.8 ± 15.4		O=Cc1c(O)cccc1OCc1cccnc1F [Comp 6, 2-((2-fluoropyridin-3-yl)methoxy)-6-hydroxybenzaldehyde]	AUC(0-inf) [1]: 180000 ng·h/mL and 728 µM·h; Cmax [1]: 12100 ng/mL and 49 µM; half-life [1]: 492 min
88.2 ± 2.1	87.7 ± 4.3	100.7 ± 3.0	98.1 ± 3.2		O=Cc1c(O)cccc1OCc1ncccn1 [Comp 11, 2-hydroxy-6-(pyrimidin-2-ylmethoxy)benzaldehyde]	
85.6 ± 2.5	84.8 ± 7.5	101.3 ± 6.3	100.0 ± 0.0		O=Cc1c(O)cccc1OCc1ncccc1Cl [Comp 8, 2-((3-chloropyridin-2-yl)methoxy)-6-hydroxybenzaldehyde]	AUC(0-inf) [1]: 269000 ng·h/mL and 1020 µM·h; Cmax [1]: 20000 ng/mL and 76 µM; half-life [1]: 570 min
60.1 ± 3.0	60.0 ± 3.3	100.1 ± 0.9	74.4 ± 10.6		O=Cc1c(O)cccc1OCc1ccncc1 [Comp 3, 2-hydroxy-6-(pyridin-4-ylmethoxy)benzaldehyde]	
59.6 ± 5.7	60.2 ± 5.7	99.0 ± 3.1	73.91 ± 9.8		O=Cc1c(O)cccc1OCc1cccnc1Cl [Comp 7, 2-((2-chloropyridin-3-yl)methoxy)-6-hydroxybenzaldehyde]	
